Reference: patent US20150125889A1, “IN VITRO DETECTION OF MICROORGANISMS WITH AZOREDUCTASE ACTIVITY” (BIOMÉRIEUX, priority 2012, published 2015)

Experiments:
Assay in all cases: Reduction of azo substrates over 24 hours at 35° C., microtitration plate (Example 1)
Assay type in all cases: cell-based
Candida albicans = tested on: Candida albicans; parameters: key to RED (substrate reduced or not): RED indicates whether the substrate is reduced (Y) or not (N); RED indicates whether the substrate is reduced (Y) or not (N); key to Co (growth, absorbance at 660 nm) / Decol (substrate decolourized, decrease in absorbance) / Fluo (fluorescence multiplied by 2 relative to substrate-free control): The symbol “+” means good growth/decolourization/significant increase in fluorescence; The symbol “+/−” means difficult growth; The symbol “−” means that there is no growth/decolourization/significant increase in fluorescence; conditions: substrate 35 mg/l
Summary of the method: (§1)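 Readout: A660 for growth; substrate-specific absorbance/fluorescence for azo reduction. Trypcase soya broth, 35 mg/l substrate, 0.5 McFarland inoculum, 35° C., 24 h. Reduced = decolourization and/or fluorescence ≥2× substrate-free control.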

Cronobacter muytjensii = tested on: Cronobacter muytjensii; parameters: key to RED (substrate reduced or not): RED indicates whether the substrate is reduced (Y) or not (N); RED indicates whether the substrate is reduced (Y) or not (N); key to Co (growth, absorbance at 660 nm) / Decol (substrate decolourized, decrease in absorbance) / Fluo (fluorescence multiplied by 2 relative to substrate-free control): The symbol “+” means good growth/decolourization/significant increase in fluorescence; The symbol “+/−” means difficult growth; The symbol “−” means that there is no growth/decolourization/significant increase in fluorescence; conditions: E. muytjensii, substrate 35 mg/l
Summary of the method: as §1

Escherichia coli = tested on: Escherichia coli; parameters: key to RED (substrate reduced or not): RED indicates whether the substrate is reduced (Y) or not (N); RED indicates whether the substrate is reduced (Y) or not (N); key to Co (growth, absorbance at 660 nm) / Decol (substrate decolourized, decrease in absorbance) / Fluo (fluorescence multiplied by 2 relative to substrate-free control): The symbol “+” means good growth/decolourization/significant increase in fluorescence; The symbol “+/−” means difficult growth; The symbol “−” means that there is no growth/decolourization/significant increase in fluorescence; conditions: E. coli, substrate 35 mg/l
Summary of the method: as §1

Geotrichum candidum = tested on: Geotrichum candidum; parameters: key to RED (substrate reduced or not): RED indicates whether the substrate is reduced (Y) or not (N); RED indicates whether the substrate is reduced (Y) or not (N); key to Co (growth, absorbance at 660 nm) / Decol (substrate decolourized, decrease in absorbance) / Fluo (fluorescence multiplied by 2 relative to substrate-free control): The symbol “+” means good growth/decolourization/significant increase in fluorescence; The symbol “+/−” means difficult growth; The symbol “−” means that there is no growth/decolourization/significant increase in fluorescence; conditions: G. candidum, substrate 35 mg/l
Summary of the method: as §1

Kocuria rosea = tested on: Kocuria rosea; parameters: key to RED (substrate reduced or not): RED indicates whether the substrate is reduced (Y) or not (N); RED indicates whether the substrate is reduced (Y) or not (N); key to Co (growth, absorbance at 660 nm) / Decol (substrate decolourized, decrease in absorbance) / Fluo (fluorescence multiplied by 2 relative to substrate-free control): The symbol “+” means good growth/decolourization/significant increase in fluorescence; The symbol “+/−” means difficult growth; The symbol “−” means that there is no growth/decolourization/significant increase in fluorescence; conditions: K. rosea, substrate 35 mg/l
Summary of the method: as §1

Pseudomonas aeruginosa = tested on: Pseudomonas aeruginosa; parameters: key to RED (substrate reduced or not): RED indicates whether the substrate is reduced (Y) or not (N); RED indicates whether the substrate is reduced (Y) or not (N); key to Co (growth, absorbance at 660 nm) / Decol (substrate decolourized, decrease in absorbance) / Fluo (fluorescence multiplied by 2 relative to substrate-free control): The symbol “+” means good growth/decolourization/significant increase in fluorescence; The symbol “+/−” means difficult growth; The symbol “−” means that there is no growth/decolourization/significant increase in fluorescence; conditions: P. aeruginosa, substrate 35 mg/l
Summary of the method: as §1

Staphylococcus aureus = tested on: Staphylococcus aureus; parameters: key to RED (substrate reduced or not): RED indicates whether the substrate is reduced (Y) or not (N); RED indicates whether the substrate is reduced (Y) or not (N); key to Co (growth, absorbance at 660 nm) / Decol (substrate decolourized, decrease in absorbance) / Fluo (fluorescence multiplied by 2 relative to substrate-free control): The symbol “+” means good growth/decolourization/significant increase in fluorescence; The symbol “+/−” means difficult growth; The symbol “−” means that there is no growth/decolourization/significant increase in fluorescence; conditions: S. aureus, substrate 35 mg/l
Summary of the method: as §1

[1] = tested on: Staphylococcus epidermidis; parameters: key to RED (substrate reduced or not): RED indicates whether the substrate is reduced (Y) or not (N); RED indicates whether the substrate is reduced (Y) or not (N); key to Co (growth, absorbance at 660 nm) / Decol (substrate decolourized, decrease in absorbance) / Fluo (fluorescence multiplied by 2 relative to substrate-free control): The symbol “+” means good growth/decolourization/significant increase in fluorescence; The symbol “+/−” means difficult growth; The symbol “−” means that there is no growth/decolourization/significant increase in fluorescence; conditions: S. epidermidis, substrate 35 mg/l
Summary of the method: as §1

Acinetobacter baumanii = tested on: Acinetobacter baumanii; parameters: key to RED (substrate reduced or not): RED indicates whether the substrate is reduced (Y) or not (N); RED indicates whether the substrate is reduced (Y) or not (N); key to Decol (substrate decolourized, decrease in absorbance) / Fluo (fluorescence multiplied by 2 relative to substrate-free control) / Co (growth, absorbance at 660 nm): The symbol “+” means good growth/decolourization/significant increase in fluorescence; The symbol “+/−” means difficult growth; The symbol “−” means that there is no growth/decolourization/significant increase in fluorescence; conditions: A. baumannii, substrate 35 mg/l
Summary of the method: as §1

Enterococcus faecalis = tested on: Enterococcus faecalis; parameters: key to RED (substrate reduced or not): RED indicates whether the substrate is reduced (Y) or not (N); RED indicates whether the substrate is reduced (Y) or not (N); key to Decol (substrate decolourized, decrease in absorbance) / Fluo (fluorescence multiplied by 2 relative to substrate-free control) / Co (growth, absorbance at 660 nm): The symbol “+” means good growth/decolourization/significant increase in fluorescence; The symbol “+/−” means difficult growth; The symbol “−” means that there is no growth/decolourization/significant increase in fluorescence; conditions: E. faecalis, substrate 35 mg/l
Summary of the method: as §1

Structure (SMILES) | Co (growth, absorbance at 660 nm) (Candida albicans) | Decol (substrate decolourized, decrease in absorbance) (Candida albicans) | Fluo (fluorescence multiplied by 2 relative to substrate-free control) (Candida albicans) | RED (substrate reduced or not) (Candida albicans) | Co (growth, absorbance at 660 nm) (Cronobacter muytjensii) | Decol (substrate decolourized, decrease in absorbance) (Cronobacter muytjensii) | Fluo (fluorescence multiplied by 2 relative to substrate-free control) (Cronobacter muytjensii) | RED (substrate reduced or not) (Cronobacter muytjensii) | Co (growth, absorbance at 660 nm) (Escherichia coli) | Decol (substrate decolourized, decrease in absorbance) (Escherichia coli) | Fluo (fluorescence multiplied by 2 relative to substrate-free control) (Escherichia coli) | RED (substrate reduced or not) (Escherichia coli) | Co (growth, absorbance at 660 nm) (Geotrichum candidum) | Decol (substrate decolourized, decrease in absorbance) (Geotrichum candidum) | Fluo (fluorescence multiplied by 2 relative to substrate-free control) (Geotrichum candidum) | RED (substrate reduced or not) (Geotrichum candidum) | Co (growth, absorbance at 660 nm) (Kocuria rosea) | Decol (substrate decolourized, decrease in absorbance) (Kocuria rosea) | Fluo (fluorescence multiplied by 2 relative to substrate-free control) (Kocuria rosea) | Co (growth, absorbance at 660 nm) (Pseudomonas aeruginosa) | other results
O=C(O)c1ccccc1/N=N/c1cc(Cl)c(O)c(Cl)c1 [2-(4-Hydroxy-3,5-dichlorophenylazo)benzoic acid] | + | − | − | N | + | + | + | Y | + | + | + | Y | + | + | + | Y | − | − | − | + | Decol (substrate decolourized, decrease in absorbance) (Pseudomonas aeruginosa): −; Fluo (fluorescence multiplied by 2 relative to substrate-free control) (Pseudomonas aeruginosa): +; RED (substrate reduced or not) (Pseudomonas aeruginosa): Y; Co (growth, absorbance at 660 nm) (Staphylococcus aureus): +; Decol (substrate decolourized, decrease in absorbance) (Staphylococcus aureus): +; Fluo (fluorescence multiplied by 2 relative to substrate-free control) (Staphylococcus aureus): +; RED (substrate reduced or not) (Staphylococcus aureus): Y; Co (growth, absorbance at 660 nm) [1]: +; Decol (substrate decolourized, decrease in absorbance) [1]: +; Fluo (fluorescence multiplied by 2 relative to substrate-free control) [1]: +; RED (substrate reduced or not) [1]: Y; Co (growth, absorbance at 660 nm) (Acinetobacter baumanii): +; Decol (substrate decolourized, decrease in absorbance) (Acinetobacter baumanii): +; Fluo (fluorescence multiplied by 2 relative to substrate-free control) (Acinetobacter baumanii): +; RED (substrate reduced or not) (Acinetobacter baumanii): Y; Co (growth, absorbance at 660 nm) (Enterococcus faecalis): +; Decol (substrate decolourized, decrease in absorbance) (Enterococcus faecalis): +; Fluo (fluorescence multiplied by 2 relative to substrate-free control) (Enterococcus faecalis): +; RED (substrate reduced or not) (Enterococcus faecalis): Y
O=S(=O)([O-])c1ccc2c(N=Nc3cccc4ccccc34)c(O)c(S(=O)(=O)[O-])cc2c1.[Na+].[Na+] [Bordeaux B] | + | − | − | N | + | − | − | N | + | − | − | N | +/− | − | − | N | − | − | − | + | Decol (substrate decolourized, decrease in absorbance) (Pseudomonas aeruginosa): −; Fluo (fluorescence multiplied by 2 relative to substrate-free control) (Pseudomonas aeruginosa): −; RED (substrate reduced or not) (Pseudomonas aeruginosa): N; Co (growth, absorbance at 660 nm) (Staphylococcus aureus): +; Decol (substrate decolourized, decrease in absorbance) (Staphylococcus aureus): −; Fluo (fluorescence multiplied by 2 relative to substrate-free control) (Staphylococcus aureus): −; RED (substrate reduced or not) (Staphylococcus aureus): N; Co (growth, absorbance at 660 nm) [1]: +; Decol (substrate decolourized, decrease in absorbance) [1]: −; Fluo (fluorescence multiplied by 2 relative to substrate-free control) [1]: −; RED (substrate reduced or not) [1]: N; Co (growth, absorbance at 660 nm) (Acinetobacter baumanii): +; Decol (substrate decolourized, decrease in absorbance) (Acinetobacter baumanii): −; Fluo (fluorescence multiplied by 2 relative to substrate-free control) (Acinetobacter baumanii): −; RED (substrate reduced or not) (Acinetobacter baumanii): N; Co (growth, absorbance at 660 nm) (Enterococcus faecalis): +; Decol (substrate decolourized, decrease in absorbance) (Enterococcus faecalis): +; Fluo (fluorescence multiplied by 2 relative to substrate-free control) (Enterococcus faecalis): +; RED (substrate reduced or not) (Enterococcus faecalis): Y
O=S(=O)([O-])c1ccc(N=Nc2c(O)ccc3cc(S(=O)(=O)[O-])ccc23)cc1.[Na+].[Na+] [Sunset Yellow] | + | + | + | Y | + | − | − | N | + | − | − | N | + | − | − | N | − | − | − | + | Decol (substrate decolourized, decrease in absorbance) (Pseudomonas aeruginosa): −; Fluo (fluorescence multiplied by 2 relative to substrate-free control) (Pseudomonas aeruginosa): −; RED (substrate reduced or not) (Pseudomonas aeruginosa): N; Co (growth, absorbance at 660 nm) (Staphylococcus aureus): +; Decol (substrate decolourized, decrease in absorbance) (Staphylococcus aureus): −; Fluo (fluorescence multiplied by 2 relative to substrate-free control) (Staphylococcus aureus): −; RED (substrate reduced or not) (Staphylococcus aureus): N; Co (growth, absorbance at 660 nm) [1]: +; Decol (substrate decolourized, decrease in absorbance) [1]: −; Fluo (fluorescence multiplied by 2 relative to substrate-free control) [1]: −; RED (substrate reduced or not) [1]: N; Co (growth, absorbance at 660 nm) (Acinetobacter baumanii): +; Decol (substrate decolourized, decrease in absorbance) (Acinetobacter baumanii): −; Fluo (fluorescence multiplied by 2 relative to substrate-free control) (Acinetobacter baumanii): −; RED (substrate reduced or not) (Acinetobacter baumanii): N; Co (growth, absorbance at 660 nm) (Enterococcus faecalis): +; Decol (substrate decolourized, decrease in absorbance) (Enterococcus faecalis): +; Fluo (fluorescence multiplied by 2 relative to substrate-free control) (Enterococcus faecalis): +; RED (substrate reduced or not) (Enterococcus faecalis): Y
